From PMC11788587, “Validating Low‐Dose Iohexol as a Marker for Glomerular Filtration Rate by In Vitro and In Vivo Studies” (Clinical and Translational Science, 2025)

How the values were obtained:
[1] = system: hOAT1/3, hOCT1/2, hMATE1/2K, hOATP1B1/3, and hMDR1; experiment: Inhibition assays, summary across all transporters; assay type: cell-based, human
From the text: (§1) We characterized the inhibitory potential of iohexol on major drug transporters recommended by regulatory agencies, which were previously assessed in a clinical transporter phenotyping cocktail study. These transporters include hOAT1, hOAT3, hOCT1, hOCT2, hMATE1, hMATE2K, human organic anion transporter polypeptides (hOATP)1B1, hOATP1B3, and human multidrug resistance protein (hMDR)1. Additionally, we investigated whether iohexol is a substrate for any of the renal transporters among these, including hOAT1/3, hOCT1/2, and hMATE1/2K. Cell‐based uptake assays were used to assess the activities of hOAT1/3, hOCT1/2, hMATE1/2K, and hOATP1B1/1B3. Inside‐out membrane vesicle uptake assays were used to evaluate the activity of hMDR1.
To determine the maximal inhibitory potential of iohexol, intracellular accumulation of a standard substrate was measured with and without the clinically relevant highest concentrations of iohexol. Control inhibitors were tested in each experiment.
According to guidelines for assessing TDDIs after intravenous administration, the highest test concentration should be up to 50 times the unbound maximal plasma concentration (Cmax). […]
In all subsequent in vitro studies, control experiments were conducted to validate the results. […] Each condition, including cells or vesicles with the transporter and their respective controls, was analyzed in at least three replicates. […]

hOCT1 = biological target: T1, hOCT1 (Homo sapiens, UniProt O15245); experiment: Substrate assessment: iohexol uptake in 293 cells expressing hOCT1 vs control; assay type: in vitro ADME; settings: 10 μM iohexol, median (95% CI)
T1 construct: expressed in transfected cells; host or cells: HEK-293 (293) cells, pEBTetD plasmid, doxycycline-induced
T1 sequence (O15245 1-554): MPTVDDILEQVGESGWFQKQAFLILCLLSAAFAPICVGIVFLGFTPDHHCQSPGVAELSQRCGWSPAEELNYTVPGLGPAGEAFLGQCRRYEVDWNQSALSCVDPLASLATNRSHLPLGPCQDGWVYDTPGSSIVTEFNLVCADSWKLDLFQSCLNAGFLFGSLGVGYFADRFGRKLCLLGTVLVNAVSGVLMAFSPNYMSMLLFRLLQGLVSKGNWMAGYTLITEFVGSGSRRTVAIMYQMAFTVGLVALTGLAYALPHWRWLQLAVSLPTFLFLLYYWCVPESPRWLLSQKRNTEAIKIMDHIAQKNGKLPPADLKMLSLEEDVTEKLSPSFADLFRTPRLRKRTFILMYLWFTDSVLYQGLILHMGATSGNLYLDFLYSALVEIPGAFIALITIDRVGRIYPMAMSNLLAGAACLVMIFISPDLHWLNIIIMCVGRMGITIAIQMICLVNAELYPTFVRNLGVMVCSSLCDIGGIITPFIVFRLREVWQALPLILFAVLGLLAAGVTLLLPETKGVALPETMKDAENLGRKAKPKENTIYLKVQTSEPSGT
From the text: as §1
For substrate assessments, iohexol was incubated with stably transfected HEK‐293 cells expressing one of the following transporters: hOAT1, hOAT3, hOCT1, hOCT2, hMATE1, or hMATE2K, as well as with control cells lacking transporter expression. Stably transfected cell lines containing pEBTetD plasmids with wild‐type human transporter cDNAs were generated as previously described. Transporter expression was induced by adding 1 μg/mL doxycycline to the growth medium for at least 20 h. Iohexol would be considered a substrate for these transporters if: (1) the ratio of iohexol uptake in cells expressing the transporter to that in control cells was ≥ 2, and (2) a known inhibitor of the transporter reduced iohexol uptake to ≤ 50% at concentrations ≥ 10 times its inhibition constant or half‐maximal inhibitory concentration.
Uptake assays were performed using stably transfected 293 cells, with or without the expression of one of the following transporters: hOAT1, hOAT3, hOCT1, hOCT2, hMATE1, or hMATE2K, as previously described.^1
For the substrate assessment, cells were incubated with 10 µM iohexol for 10 minutes and 30 minutes for each transporter. Inhibition assays were performed using specific standard substrates for each transporter: 10 µM para-aminohippuric acid (PAH) for hOAT1, 3 µM estrone-3-sulfate (E3S) for hOAT3, 50 µM metformin for hOCT1, 5 µM metformin for hOCT2, and 3 µM 1-methyl-4-phenylpyridinium (MPP+) for hMATE1 and hMATE2K. […]
R version 4.2.1 (R Foundation for Statistical Computing, Vienna, Austria) was used for statistical evaluations and data visualization. The data analysis approach for the in vitro study was detailed by Hsin CH et al..^1 In brief, for transport assays, the initial uptake rate was calculated by normalizing the substrate concentration to both the protein concentration and the incubation time for each dish or well. The transporter-mediated uptake rate (net uptake) was determined by performing an element-wise subtraction of uptake rates from different conditions. […]

CC(=O)N(CC(O)CO)c1c(I)c(C(=O)NCC(O)CO)c(I)c(C(=O)NCC(O)CO)c1I (stereo not drawn) [iohexol]
Inhibitor of the transporters (conclusion) ([1]; in vitro, 1–20 mM iohexol): neither a substrate nor a significant inhibitor
Inhibitory effect on transporter-mediated uptake of standard substrates ([1]; iohexol 1 mM and 2 mM): no significant inhibitory effect
Differences in intracellular accumulation (expression on minus off) (hOCT1; 10 minutes): 0.16 (-1.8 to 0.79) pmol/mg protein
Uptake ratio (transporter-expressing vs non-expressing cells) (hOCT1; 10 minutes): 1 (0.84 to 1.1)
Differences in intracellular accumulation (expression on minus off) (hOCT1; 30 minutes): -0.51 (-1.1 to -0.15) pmol/mg protein
Uptake ratio (transporter-expressing vs non-expressing cells) (hOCT1; 30 minutes): 0.89 (0.79 to 0.97)
